In ChEMBL document CHEMBL3885881, “DrugMatrix”:

Organism: Rattus norvegicus
Assay: DrugMatrix - Regimen: Daily Repeat
Type: toxicity, organism-based, Sprague-Dawley
Parameters: regimen Daily Repeat, gender Male, age 6-8 weeks
Details: in vivo, iv, vehicle 100 % SALINE; for ABSOLUTE BASOPHIL / ABSOLUTE EOSINOPHIL / ABSOLUTE LYMPHOCYTE / ABSOLUTE MONOCYTE / ABSOLUTE SEGMENTED NEUTROPHIL / BASOPHIL / EOSINOPHIL / ERYTHROCYTE COUNT / HEMATOCRIT / HEMOGLOBIN / LEUKOCYTE COUNT / LYMPHOCYTE / MEAN CORPUSCULAR HEMOGLOBIN / MEAN CORPUSCULAR HEMOGLOBIN CONCENTRATION / MEAN CORPUSCULAR VOLUME / MONOCYTE / NEUTROPHIL / NUCLEATED RED BLOOD CELLS / PLATELET COUNT: tissue Blood; for ALANINE AMINOTRANSFERASE / ALBUMIN / ALKALINE PHOSPHATASE / ASPARTATE AMINOTRANSFERASE / BLOOD UREA NITROGEN / CARBON DIOXIDE / CHLORIDE / CHOLESTEROL / CREATINE PHOSPHOKINASE / CREATININE / GLUCOSE / LACTATE DEHYDROGENASE / LIPASE / PHOSPHORUS / POTASSIUM / SODIUM / TOTAL BILIRUBIN / TOTAL PROTEIN / URIC ACID: tissue Plasma
[1] = 0 mg/kg, 72 h, dose level Control, time 3 day
[2] = 0 mg/kg, 120 h, dose level Control, time 5 day
[3] = 7 mg/kg, 72 h, dose level Low, time 3 day

Q: What does the source list for `CC(=O)N[C@@H]1[C@H](Oc2c3cc4cc2Oc2ccc(cc2Cl)[C@@H](O[C@@H]2O[C@@H](CO)[C@@H](O)[C@H](O)[C@@H]2NC(C)=O)[C@@H]2NC(=O)[C@H](NC(=O)[C@@H]4NC(=O)[C@H]4NC(=O)[C@@H](Cc5ccc(c(Cl)c5)O3)NC(=O)[C@H](N)c3ccc(O)c(c3)Oc3cc(O)cc4c3)c3ccc(O)c(c3)-c3c(O[C@H]4O[C@H](CO)[C@@H](O)[C@@H](O)[C@@H]4O)cc(O)cc3[C@@H](C(=O)O)NC2=O)O[C@@H](CO)[C@@H](O)[C@@H]1O`?
A: ABSOLUTE BASOPHIL [1]: 0 CELLS/uL; ABSOLUTE EOSINOPHIL [1]: 193.5 CELLS/uL; ABSOLUTE LYMPHOCYTE [1]: 15717.5 CELLS/uL; ABSOLUTE MONOCYTE [1]: 389.33 CELLS/uL; ABSOLUTE SEGMENTED NEUTROPHIL [1]: 1883 CELLS/uL; BASOPHIL [1]: 0%; EOSINOPHIL [1]: 1.17%; ERYTHROCYTE COUNT [1]: 5.68 x10E6/uL; HEMATOCRIT [1]: 35.83%; HEMOGLOBIN [1]: 13.48 G/DL; LEUKOCYTE COUNT [1]: 18.18 x10E3/uL; LYMPHOCYTE [1]: 86.67%; MEAN CORPUSCULAR HEMOGLOBIN [1]: 23.8 pg; MEAN CORPUSCULAR HEMOGLOBIN CONCENTRATION [1]: 37.68 G/DL; MEAN CORPUSCULAR VOLUME [1]: 63.27 fL; MONOCYTE [1]: 2.17%; NEUTROPHIL [1]: 10%; NUCLEATED RED BLOOD CELLS [1]: 0 /100WBC; PLATELET COUNT [1]: 1186.33 x10E3/uL; ALANINE AMINOTRANSFERASE [1]: 68.5 u/L; ALBUMIN [1]: 4.37 G/DL; ALKALINE PHOSPHATASE [1]: 396.33 u/L; ASPARTATE AMINOTRANSFERASE [1]: 92.5 u/L; BLOOD UREA NITROGEN [1]: 18 mg/dL; CARBON DIOXIDE [1]: 24.33 mmol/L; CHLORIDE [1]: 102.4 MEQ/L; CHOLESTEROL [1]: 67.17 mg/dL; CREATINE PHOSPHOKINASE [1]: 378.67 u/L; CREATININE [1]: 0.19 mg/dL; GLUCOSE [1]: 178.33 mg/dL; LACTATE DEHYDROGENASE [1]: 245.17 u/L; LIPASE [1]: 9.2 u/L; PHOSPHORUS [1]: 12.37 mg/dL; POTASSIUM [1]: 6.48 MEQ/L; SODIUM [1]: 143.28 MEQ/L; TOTAL BILIRUBIN [1]: 0.23 mg/dL; TOTAL PROTEIN [1]: 5.65 G/DL; URIC ACID [1]: 1.6 mg/dL; ABSOLUTE BASOPHIL [2]: 0 CELLS/uL; ABSOLUTE EOSINOPHIL [2]: 27.5 CELLS/uL; ABSOLUTE LYMPHOCYTE [2]: 13593.17 CELLS/uL; ABSOLUTE MONOCYTE [2]: 576 CELLS/uL; ABSOLUTE SEGMENTED NEUTROPHIL [2]: 1836.67 CELLS/uL; BASOPHIL [2]: 0%; EOSINOPHIL [2]: 0.17%; ERYTHROCYTE COUNT [2]: 5.99 x10E6/uL; HEMATOCRIT [2]: 37.42%; HEMOGLOBIN [2]: 13.78 G/DL; LEUKOCYTE COUNT [2]: 16.03 x10E3/uL; LYMPHOCYTE [2]: 85.17%; MEAN CORPUSCULAR HEMOGLOBIN [2]: 23.08 pg; MEAN CORPUSCULAR HEMOGLOBIN CONCENTRATION [2]: 36.83 G/DL; MEAN CORPUSCULAR VOLUME [2]: 62.6 fL; MONOCYTE [2]: 3.5%; NEUTROPHIL [2]: 11.17%; NUCLEATED RED BLOOD CELLS [2]: 0 /100WBC; PLATELET COUNT [2]: 1352.5 x10E3/uL; ALANINE AMINOTRANSFERASE [2]: 49.83 u/L; ALBUMIN [2]: 4.25 G/DL; ALKALINE PHOSPHATASE [2]: 331.33 u/L; ASPARTATE AMINOTRANSFERASE [2]: 86.17 u/L; BLOOD UREA NITROGEN [2]: 19.5 mg/dL; CARBON DIOXIDE [2]: 26.67 mmol/L; CHLORIDE [2]: 103 MEQ/L; CHOLESTEROL [2]: 67.5 mg/dL; CREATINE PHOSPHOKINASE [2]: 346.17 u/L; CREATININE [2]: 0.22 mg/dL; GLUCOSE [2]: 170.67 mg/dL; LACTATE DEHYDROGENASE [2]: 405.5 u/L; LIPASE [2]: 8.83 u/L; PHOSPHORUS [2]: 11.3 mg/dL; POTASSIUM [2]: 6.06 MEQ/L; SODIUM [2]: 143.4 MEQ/L; TOTAL BILIRUBIN [2]: 0.17 mg/dL; TOTAL PROTEIN [2]: 6.22 G/DL; URIC ACID [2]: 1.63 mg/dL; ABSOLUTE BASOPHIL [3]: 0 CELLS/uL; ABSOLUTE EOSINOPHIL [3]: 340.67 CELLS/uL; ABSOLUTE LYMPHOCYTE [3]: 16096 CELLS/uL; ABSOLUTE MONOCYTE [3]: 460.67 CELLS/uL; ABSOLUTE SEGMENTED NEUTROPHIL [3]: 1602.67 CELLS/uL; BASOPHIL [3]: 0%; EOSINOPHIL [3]: 1.67%; ERYTHROCYTE COUNT [3]: 5.86 x10E6/uL; HEMATOCRIT [3]: 37.6%; HEMOGLOBIN [3]: 14.23 G/DL; LEUKOCYTE COUNT [3]: 18.5 x10E3/uL; LYMPHOCYTE [3]: 87%; MEAN CORPUSCULAR HEMOGLOBIN [3]: 24.27 pg; MEAN CORPUSCULAR HEMOGLOBIN CONCENTRATION [3]: 37.87 G/DL; MEAN CORPUSCULAR VOLUME [3]: 64.13 fL; MONOCYTE [3]: 2.67%; NEUTROPHIL [3]: 8.67%; NUCLEATED RED BLOOD CELLS [3]: 0 /100WBC; PLATELET COUNT [3]: 1212.33 x10E3/uL; ALANINE AMINOTRANSFERASE [3]: 48 u/L; ALBUMIN [3]: 5.03 G/DL; ALKALINE PHOSPHATASE [3]: 341.33 u/L; ASPARTATE AMINOTRANSFERASE [3]: 90.67 u/L; BLOOD UREA NITROGEN [3]: 21.33 mg/dL; CARBON DIOXIDE [3]: 21.67 mmol/L; CHLORIDE [3]: 98.33 MEQ/L; CHOLESTEROL [3]: 73.33 mg/dL; CREATINE PHOSPHOKINASE [3]: 336 u/L; CREATININE [3]: 0.27 mg/dL; GLUCOSE [3]: 149 mg/dL; LACTATE DEHYDROGENASE [3]: 410.67 u/L; LIPASE [3]: 10 u/L; PHOSPHORUS [3]: 11.57 mg/dL; POTASSIUM [3]: 7.21 MEQ/L; SODIUM [3]: 141.2 MEQ/L; TOTAL BILIRUBIN [3]: 0.27 mg/dL; TOTAL PROTEIN [3]: 6.07 G/DL; URIC ACID [3]: 2.23 mg/dL
